Measurements taken from patent publication US20240368104A1, “Novel Dialkoxynaphtho[2,3-C]Furan-1(3H)-One Derivatives and Pharmaceutical Composition For Preventing or Treating Respiratory Disease or SARS-COV-2 Infection Disease, Comprising Same” (priority 2021, published 2024).
Read-outs that look alike come from different tables or passages of the source.

Key:
SARS-COV-2 = assay: microbe, parasite or virus in culture; assay type: cell-based; design: SI (Selectivity Index, CC50/IC50): unit not given here; conditions: for SI (Selectivity Index, CC50/IC50): SARS-COV-2, values >50 assumed to be 50; for IC50: read-out: SARS-COV-2 inhibition (IC50)
in vitro = conditions: African green monkey
[1] = Severe acute respiratory syndrome coronavirus 2, Vero, 24 h
[2] = Severe acute respiratory syndrome coronavirus 2, Vero cells, 24 hours infection

SMILES	SI (Selectivity Index, CC50/IC50) (SARS-COV-2)	IC50 (SARS-COV-2; [1])	CC50 (in vitro)	IC50 (SARS-COV-2; [2])
COc1cc2cc3c(c(-c4ccc(N5CCOCC5)cc4)c2cc1OC)C(=O)OC3.Cl [Example 245, 6,7-dimethoxy-9-(4-morpholinophenyl)naphtho[2,3-c]furan-1(3H)-one]	1.00	> 50 µM	> 50 µM	
CNc1ccc(-c2c3c(cc4cc(OC)c(OC)cc24)COC3=O)cc1 [Example 246, 6,7-dimethoxy-9-(4-(methylamino)phenyl)naphtho[2,3-c]furan-1(3H)-one]	15.18		> 50 µM	3.29 µM
COc1cc2cc3c(c(-c4ccc(N(C)C)cc4)c2cc1OC)C(=O)OC3.Cl [Example 247, 9-(4-(dimethylamino)phenyl)-6,7-dimethoxynaphtho[2,3-c]furan-1(3H)-one]	344.5	0.15 µM	> 50 µM	
CCN(C)c1ccc(-c2c3c(cc4cc(OC)c(OC)cc24)COC3=O)cc1 [Example 248, 9-(4-(ethyl(methyl)amino)phenyl)-6,7-dimethoxynaphtho[2,3-c]furan-1(3H)-one]	344.5		> 50 µM	< 0.098 µM
CCN(CC)c1ccc(-c2c3c(cc4cc(OC)c(OC)cc24)COC3=O)cc1 [Example 249, 9-(4-(diethylamino)phenyl)-6,7-dimethoxynaphtho[2,3-c]furan-1(3H)-one]	100.23		> 50 µM	0.5 µM
CCNc1ccc(-c2c3c(cc4cc(OC)c(OC)cc24)COC3=O)cc1 [Example 250, 9-(4-(ethylamino)phenyl)-6,7-dimethoxynaphtho[2,3-c]furan-1(3H)-one]	10.40		> 50 µM	4.81 µM
COc1cc2cc3c(c(-c4ccc(N5CCCC5)cc4)c2cc1OC)C(=O)OC3 [Example 251, 6,7-dimethoxy-9-(4-(pyrrolidin-1-yl)phenyl)naphtho[2,3-c]furan-1(3H)-one]	119.39		> 50 µM	0.42 µM
COc1cc2cc3c(c(-c4cccc(N5CCCC5)c4)c2cc1OC)C(=O)OC3.Cl [Example 252, 6,7-dimethoxy-9-(3-(pyrrolidin-1-yl)phenyl)naphtho[2,3-c]furan-1(3H)-one]	1	> 50 µM	> 50 µM	
CCN(CCOC)c1ccc(-c2c3c(cc4cc(OC)c(OC)cc24)COC3=O)cc1 [Example 253, 9-(4-(ethyl(2-methoxyethyl)amino)phenyl)-6,7-dimethoxynaphtho[2,3-c]furan-1(3H)-one]	20.54		> 50 µM	2.43 µM
CCN(Cc1cccnc1)c1ccc(-c2c3c(cc4cc(OC)c(OC)cc24)COC3=O)cc1 [Example 254, 9-(4-(ethyl(pyridin-3-ylmethyl)amino)phenyl)-6,7-dimethoxynaphtho[2,3-c]furan-1(3H)-one]	12.17		> 50 µM	4.11 µM
COc1cc2cc3c(c(-c4ccc(N(C)Cc5cccnc5)cc4)c2cc1OC)C(=O)OC3 [Example 255, 6,7-dimethoxy-9-(4-(methyl(pyridin-3-ylmethyl)amino)phenyl)naphtho[2,3-c]furan-1(3H)-one]	15.74		> 50 µM	3.18 µM
COCCN(C)c1ccc(-c2c3c(cc4cc(OC)c(OC)cc24)COC3=O)cc1 [Example 256, 6,7-dimethoxy-9-(4-((2-methoxyethyl)(methyl)amino)phenyl)naphtho[2,3-c]furan-1(3H)-one]	82.38		> 50 µM	0.61 µM
CNc1cccc(-c2c3c(cc4cc(OC)c(OC)cc24)COC3=O)c1 [Example 257, 6,7-dimethoxy-9-(3-(methylamino)phenyl)naphtho[2,3-c]furan-1(3H)-one]	6.24		> 50 µM	8.01 µM
CCNc1cccc(-c2c3c(cc4cc(OC)c(OC)cc24)COC3=O)c1 [Example 258, 9-(3-(ethylamino)phenyl)-6,7-dimethoxynaphtho[2,3-c]furan-1(3H)-one]	3.04		> 50 µM	16.5 µM
COc1cc2c(OC)c3c(c(-c4ccc5c(c4)OC(F)(F)O5)c2cc1OC)COC3=O [Example 259, 4-(2,2-difluorobenzo[d][1,3]dioxol-5-yl)-6,7,9-trimethoxynaphtho[2,3-c]furan-1(3H)-one]	1.00		> 50 µM	> 50 µM
COc1cc2c(OC)c3c(c(-c4ccc(N5CCC6(CC5)OCCO6)nc4)c2cc1OC)COC3=O [Example 260, 4-(6-(1,4-dioxa-8-azaspiro[4.5]decan-8-yl)pyridin-3-yl)-6,7,9-trimethoxynaphtho[2,3-c]furan-1(3H)-one]	1.00		> 50 µM	> 50 µM
CCCCN(C)c1ccc(-c2c3c(c(OC)c4cc(OC)c(OC)cc24)C(=O)OC3)cn1.Cl [Example 261, 4-(6-(butyl(methyl)amino)pyridin-3-yl)-6,7,9-trimethoxynaphtho[2,3-c]furan-1(3H)-one]	4.21	11.9 µM	> 50 µM	
COc1cc2c(OC)c3c(c(-c4ccc5c(c4)OCO5)c2cc1OC)COC3=O [Example 262, 4-(benzo[d][1,3]dioxol-5-yl)-6,7,9-trimethoxynaphtho[2,3-c]furan-1(3H)-one]	5.40	9.26 µM	> 50 µM	
COc1cc2c(OC)c3c(c(-c4ccc(N(C)c5cccc(C(F)(F)F)c5)nc4)c2cc1OC)COC3=O.Cl [Example 263, 6,7,9-trimethoxy-4-(6-(methyl(3-(trifluoromethyl)phenyl)amino)pyridin-3-yl)naphtho[2,3-c]furan-1(3H)-one]	1.00	> 50 µM	> 50 µM	
COc1cc2c(OC)c3c(c(-c4ccc(-n5cc(C#N)c(N(C)C)n5)nc4)c2cc1OC)COC3=O [Example 264, 3-(dimethylamino)-1-(5-(6,7,9-trimethoxy-1-oxo-1,3-dihydronaphtho[2,3-c]furan-4-yl)pyridin-2-yl)-1H-pyrazol-4-carbonitrile]	1.00		> 50 µM	> 50 µM
COCCN(C)c1ccc(-c2c3c(c(OC)c4cc(OC)c(OC)cc24)C(=O)OC3)cn1.Cl [Example 265, 6,7,9-trimethoxy-4-(6-((2-methoxyethyl)(methyl)amino)pyridin-3-yl)naphtho[2,3-c]furan-1(3H)-one]	1.51	33 µM	> 50 µM	
COc1cc2c(OC)c3c(c(-c4ccc(N(C)[C@H]5CCc6c(cccc6OC)C5)nc4)c2cc1OC)COC3=O [Example 266, (S)-6,7,9-trimethoxy-4-(6-((5-methoxy-1,2,3,4-tetrahydronaphthalen-2-yl)(methyl)amino)pyridin-3-yl)naphtho[2,3-c]furan-1(3H)-one]	1.00		> 50 µM	> 50 µM
COc1cc2c(OC)c3c(c(-c4ccc(N5CCOCC5)nc4)c2cc1OC)COC3=O [Example 267, 6,7,9-trimethoxy-4-(6-morpholinopyridin-3-yl)naphtho[2,3-c]furan-1(3H)-one]	1.00		> 50 µM	> 50 µM
COc1cc2c(OC)c3c(c(-c4ccc(N(C)C5Cc6ccccc6C5)nc4)c2cc1OC)COC3=O.Cl [Example 268, 4-(6-((2,3-dihydro-1H-indan-2-yl)(methyl)amino)pyridin-3-yl)-6,7,9-trimethoxynaphtho[2,3-c]furan-1(3H)-one]	1.00	> 50 µM	> 50 µM	
CC[C@H](C)[C@H](N)C(=O)Oc1cc2c(cc1-c1c3c(cc4cc(OC)c(OC)cc14)COC3=O)OCO2 [Example 270, 6-(6,7-dimethoxy-3-oxo-1,3-dihydronaphtho[2,3-c]furan-4-yl)benzo[d][1,3]dioxol-5-yl L-isoleucinate]	122.64	0.41 µM	> 50 µM	
COc1cc2cc3c(c(-c4cc5c(cc4OC(=O)c4ccncc4)OCO5)c2cc1OC)C(=O)OC3 [Example 271, 6-(6,7-dimethoxy-3-oxo-1,3-dihydronaphtho[2,3-c]furan-4-yl)benzo[d][1,3]dioxol-5-yl isonicoinate]	34.41		> 50 µM	1.45 µM
COc1cc2cc3c(c(-c4cc5c(cc4OC(=O)c4cccnc4)OCO5)c2cc1OC)C(=O)OC3 [Example 272, 6-(6,7-dimethoxy-3-oxo-1,3-dihydronaphtho[2,3-c]furan-4-yl)benzo[d][1,3]dioxol-5-yl nicotinate]	27.23		> 50 µM	1.84 µM
COc1cc2cc3c(c(-c4cc5c(cc4OC(=O)[C@@H]4CCCN4)OCO5)c2cc1OC)C(=O)OC3 [Example 273, 6-(6,7-dimethoxy-3-oxo-1,3-dihydronaphtho[2,3-c]furan-4-yl)benzo[d][1,3]dioxol-5-yl L-prolinate]	36.52		> 50 µM	1.37 µM
COc1cc2cc3c(c(-c4cc5c(cc4OC(C)=O)OCO5)c2cc1OC)C(=O)OC3 [Example 274, 6-(6,7-dimethoxy-3-oxo-1,3-dihydronaphtho[2,3-c]furan-4-yl)benzo[d][1,3]dioxol-5-yl acetate]	19.61		> 50 µM	2.55 µM
COc1cc2cc3c(c(-c4cc5c(cc4OC(=O)C(C)C)OCO5)c2cc1OC)C(=O)OC3 [Example 275, 6-(6,7-dimethoxy-3-oxo-1,3-dihydronaphtho[2,3-c]furan-4-yl)benzo[d][1,3]dioxol-5-yl isobutrate]	1.76		> 50 µM	28.4 µM
